# According to PubChem BioAssay AID248 (DTP/NCI, 2004):
# “And” between values parts separate entries of the source, which are not always exact repeats. Equal entries are not always repeated. Toxic doses and inconclusive results are not listed.
# Tested on: L1210 leukemia ip in BDF1 mice, survival T/C
# Assay: NCI In Vivo Anticancer Drug Screen. Data for tumor model L1210 Leukemia (intraperitoneal) in B6D2F1 (BDF1) mice
# Settings: endpoint: mean survival time, higher = longer survival
# Outline: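 Transplanted-tumor mice were given test agent; controls received vehicle only. Survival readings from the two groups were divided (treated over control).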
# [1] = dose: 100.0 mg/kg/injection, schedule: Q04DX003 (ip), vehicle: saline
# [2] = dose: 200.0 mg/kg/injection, schedule: Q04DX003 (ip), vehicle: saline
# [3] = dose: 100.0 mg/kg/injection, schedule: Q01DX001 (ip), vehicle: saline
# [4] = dose: 100.0 mg/kg/injection, schedule: Q04DX003 (ip), vehicle: saline with Tween-80
# [5] = dose: 200.0 mg/kg/injection, schedule: Q04DX003 (ip), vehicle: saline with Tween-80
# [6] = dose: 400.0 mg/kg/injection, schedule: Q04DX003 (ip), vehicle: saline with Tween-80
# [7] = dose: 200.0 mg/kg/injection, schedule: Q01DX001 (ip), vehicle: saline
# [8] = dose: 400.0 mg/kg/injection, schedule: Q01DX001 (ip), vehicle: saline
# [9] = dose: 50.0 mg/kg/injection, schedule: Q01DX009 (ip), vehicle: Klucel (hydroxypropylcellulose) (HPC)
# [10] = dose: 100.0 mg/kg/injection, schedule: Q01DX009 (ip), vehicle: Klucel (hydroxypropylcellulose) (HPC)
# [11] = dose: 50.0 mg/kg/injection, schedule: Q01DX001 (ip), vehicle: saline
# [12] = dose: 75.0 mg/kg/injection, schedule: Q01DX001 (ip), vehicle: saline
# [13] = dose: 150.0 mg/kg/injection, schedule: Q01DX001 (ip), vehicle: saline
# [14] = dose: 300.0 mg/kg/injection, schedule: Q01DX001 (ip), vehicle: saline
# [15] = dose: 100.0 mg/kg/injection, schedule: Q04DX002 (ip), vehicle: saline with Tween-80
# [16] = dose: 200.0 mg/kg/injection, schedule: Q04DX002 (ip), vehicle: saline with Tween-80
# [17] = dose: 100.0 mg/kg/injection, schedule: Q01DX001 (ip), vehicle: carboxymethylcellulose (CMC)
# [18] = dose: 200.0 mg/kg/injection, schedule: Q01DX001 (ip), vehicle: carboxymethylcellulose (CMC)
# [19] = dose: 400.0 mg/kg/injection, schedule: Q01DX001 (ip), vehicle: carboxymethylcellulose (CMC)
structure (smiles),measurement,setting,value
CC(NC(=O)c1ccccc1)C(=O)NC(CSC(c1ccccc1)c1ccccc1)C(=O)O (centres undefined),T/C,"dose: 25.0 mg/kg/injection, schedule: Q01DX009 (ip), vehicle: saline",102 % of control
same,T/C,"dose: 50.0 mg/kg/injection, schedule: Q01DX009 (ip), vehicle: saline",100 % of control
same,T/C,"dose: 100.0 mg/kg/injection, schedule: Q01DX009 (ip), vehicle: saline",93 % of control and 90 % of control
same,T/C,[1],94 % of control
same,T/C,[2],100 % of control
CC(=O)Nc1ccc(S(=O)(=O)C2=CC(=O)c3ccccc3C2=O)cc1,T/C,[3],95 % of control
CCCCCCCCCCCCOc1ccc(C(C)(C)C)cc1,T/C,"dose: 100.0 mg/kg/injection, schedule: Q01DX007 (ip), vehicle: saline with Tween-80",97 % of control
same,T/C,[4],100 % of control
same,T/C,"dose: 200.0 mg/kg/injection, schedule: Q01DX007 (ip), vehicle: saline with Tween-80",96 % of control
same,T/C,[5],95 % of control
same,T/C,"dose: 400.0 mg/kg/injection, schedule: Q01DX007 (ip), vehicle: saline with Tween-80",97 % of control
same,T/C,[6],101 % of control
CC(=O)Nc1c(C(N)=O)ncn1C1OC(COC(C)=O)C(OC(C)=O)C1OC(C)=O (centres undefined),T/C,"dose: 100.0 mg/kg/injection, schedule: Q01DX005 (ip), vehicle: saline",96 % of control
same,T/C,"dose: 200.0 mg/kg/injection, schedule: Q01DX005 (ip), vehicle: saline",100 % of control
CCCCOCN(COCCCC)C(C)(C)C,T/C,[3],93 % of control
same,T/C,[7],98 % of control
same,T/C,[8],117 % of control
O=C(CI)Nc1ccc(Cl)c(Cl)c1,T/C,"dose: 25.0 mg/kg/injection, schedule: Q01DX009 (ip), vehicle: Klucel (hydroxypropylcellulose) (HPC)",95 % of control
same,T/C,[9],94 % of control
same,T/C,[10],93 % of control
CN(C)c1ccc(/C=C/c2nc3ccc([N+](=O)[O-])cc3[nH]2)cc1,T/C,[9],97 % of control
same,T/C,[10],97 % of control
same,T/C,"dose: 100.0 mg/kg/injection, schedule: Q04DX003 (ip), vehicle: Klucel (hydroxypropylcellulose) (HPC)",97 % of control
same,T/C,"dose: 200.0 mg/kg/injection, schedule: Q01DX009 (ip), vehicle: Klucel (hydroxypropylcellulose) (HPC)",92 % of control
same,T/C,"dose: 200.0 mg/kg/injection, schedule: Q04DX003 (ip), vehicle: Klucel (hydroxypropylcellulose) (HPC)",102 % of control
same,T/C,"dose: 400.0 mg/kg/injection, schedule: Q01DX009 (ip), vehicle: Klucel (hydroxypropylcellulose) (HPC)",94 % of control
same,T/C,"dose: 400.0 mg/kg/injection, schedule: Q04DX003 (ip), vehicle: Klucel (hydroxypropylcellulose) (HPC)",103 % of control
[O-]/[N+](=C\c1ccccc1)c1ccccc1,T/C,[11],110 % of control
same,T/C,[3],110 % of control
same,T/C,[7],108 % of control
CCOC1Cc2ccccc21 (centres undefined),T/C,[4],95 % of control
same,T/C,[5],96 % of control
same,T/C,[6],98 % of control
O=C(O)CC(Nc1ccc([N+](=O)[O-])cc1[N+](=O)[O-])C(=O)O (centres undefined),T/C,[1],96 % of control
same,T/C,[2],100 % of control
same,T/C,"dose: 400.0 mg/kg/injection, schedule: Q04DX003 (ip), vehicle: saline",120 % of control
CN(Cc1cccc(Cl)c1)C(=O)Nc1ccccc1,T/C,"dose: 100.0 mg/kg/injection, schedule: Q04DX002 (ip), vehicle: Klucel (hydroxypropylcellulose) (HPC)",110 % of control
same,T/C,"dose: 200.0 mg/kg/injection, schedule: Q04DX002 (ip), vehicle: Klucel (hydroxypropylcellulose) (HPC)",110 % of control
same,T/C,"dose: 400.0 mg/kg/injection, schedule: Q04DX002 (ip), vehicle: Klucel (hydroxypropylcellulose) (HPC)",107 % of control
CCOC(=O)C1CN(CCc2ccccc2)CCC1=O (centres undefined),T/C,[12],101 % of control
same,T/C,"dose: 75.0 mg/kg/injection, schedule: Q04DX003 (ip), vehicle: saline",100 % of control
same,T/C,[13],95 % of control
same,T/C,"dose: 150.0 mg/kg/injection, schedule: Q04DX003 (ip), vehicle: saline",100 % of control
same,T/C,[14],91 % of control
same,T/C,"dose: 300.0 mg/kg/injection, schedule: Q04DX003 (ip), vehicle: saline",108 % of control
Nc1ccc(C(=O)O)cn1,T/C,[11],96 % of control
same,T/C,[3],106 % of control
same,T/C,[7],100 % of control
CC/C=C(/C)C(C#N)(C(=O)O)C(C)C (centres undefined),T/C,[12],98 % of control
same,T/C,[13],104 % of control
same,T/C,[14],94 % of control
CN(C)c1ccc([N+](=O)[O-])cn1,T/C,[15],97 % of control
same,T/C,[16],97 % of control
CNC(=O)OCCOC(=O)c1ccc(OC(=O)NC)cc1,T/C,"dose: 25.0 mg/kg/injection, schedule: Q01DX001 (ip), vehicle: carboxymethylcellulose (CMC)",109 % of control
same,T/C,"dose: 25.0 mg/kg/injection, schedule: Q01DX001 (ip), vehicle: other",96 % of control
same,T/C,"dose: 25.0 mg/kg/injection, schedule: Q01DX001 (ip), vehicle: saline",95 % of control
same,T/C,"dose: 45.0 mg/kg/injection, schedule: Q01DX001 (ip), vehicle: saline",91 % of control
same,T/C,"dose: 50.0 mg/kg/injection, schedule: Q01DX001 (ip), vehicle: carboxymethylcellulose (CMC)",93 % of control
same,T/C,"dose: 50.0 mg/kg/injection, schedule: Q01DX001 (ip), vehicle: other",100 % of control
same,T/C,[11],96 % of control
same,T/C,"dose: 67.0 mg/kg/injection, schedule: Q01DX001 (ip), vehicle: saline",100 % of control
same,T/C,[17],103 % of control and 92 % of control
same,T/C,"dose: 100.0 mg/kg/injection, schedule: Q01DX001 (ip), vehicle: other",94 % of control
same,T/C,[3],95 % of control and 101 % of control and 202 % of control
same,T/C,[13],95 % of control
same,T/C,[18],97 % of control and 101 % of control
same,T/C,"dose: 200.0 mg/kg/injection, schedule: Q01DX001 (ip), vehicle: other",96 % of control
same,T/C,[7],88 % of control and 90 % of control
same,T/C,[19],97 % of control
same,T/C,[8],93 % of control and 90 % of control
C=CCN(c1ccccc1)P(=O)(N1CC1)N1CC1,T/C,[17],96 % of control
same,T/C,[18],96 % of control
same,T/C,[19],96 % of control
O=C([O][Bi]([c]1ccccc1)[c]1ccccc1)C(F)(F)F,T/C,[15],95 % of control
same,T/C,[16],95 % of control
same,T/C,"dose: 400.0 mg/kg/injection, schedule: Q04DX002 (ip), vehicle: saline with Tween-80",92 % of control
Cc1noc2c1ncc[n+]2[O-],T/C,"dose: 5.0 mg/kg/injection, schedule: Q01DX009 (ip), vehicle: saline with Tween-80",89 % of control
same,T/C,"dose: 10.0 mg/kg/injection, schedule: Q01DX009 (ip), vehicle: saline with Tween-80",91 % of control
same,T/C,"dose: 20.0 mg/kg/injection, schedule: Q01DX009 (ip), vehicle: saline with Tween-80",86 % of control
